Assay results taken from patent US20040048791A1, “Method for treating neoplastic cells using cycloprodigiosin or salt thereof” (priority 2002, published 2004).

Assays:
[1] = Oka et al. (2000) FEBS Lett.; cited from earlier work
NF-κB = NF-κB luciferase gene reporter assay (pIG3Luc) in HeLa cells; type: cell-based; conditions: HeLa cells, FIG. 2A, 2C
Source text: The plasmids, pRKF-IKKα and pRKHA-IKKβ have been described previously (Oka, S., Kamata, H., Kamata, K., Yagisawa, H. and Hirata, H. (2000) FEBS Lett., 472, 196-202). pRKF-IKKαEE and pRK-HA-IKKβEE encode constitutively active mutants of IKKα, in which 176 and 180 serine residues in an activation loop are replaced by glutamic acid residues, and IKKβ, in, which 177 and 181 serine residues are replaced by glutamic acid residues, respectively. A reporter plasmid pIG3Luc for NF-κB encodes triple NF-κB binding site sequences (AGCTTCAGAGGGGACTRANSCRIPTIONCCGAGAGG) (SEQ ID NO: 2) followed by the luciferase gene. A control plasmid, pBKRLuc, was obtained from Toyobo (Toyo B-Net Co., Japan). pcDNAF-MEKK1, pRKF-p65, pEFBOSHA-Rac1-DA, and pEFBOSHA-Cdc42-DA, are the expression plasmids for MEKK1, the NF-κB subunit p65, constitutively active Rac1 and Cdc42, respectively.
Luciferase gene reporter assay and Kinase assays of IKK: HeLa cells were transfected with the reporter plasmids described above using Lipofectin (GIBCO BRL). After 24-48 hr, the luciferase activity was determined using the Luciferase Assay System (Promega). The kinase activity of IKKα and IKKβ were analyzed by immune complex kinase assay as described previously (Oka, S., Kamata, H., Kamata, K., Yagisawa, H. and Hirata, H. (2000) FEBS Lett. 472, 196-202). The substrates was using GST-IκBα(1-55) or GST-p65(399-551).
The gene expression induction by NF-κB activation plays the most important role among “life” signals by TNFα. Therefore, the NF-κB reporter gene was introduced into the cells to analyze the effect of cPrG-HCl by luciferase assay.
NF-κB is translocated into the nucleus also by activation with low-molecular-weight G proteins Rac1 and Cdc42 or MEKK1 and induces gene expression. An activated Rac1, Cdc42 or MEKK1 expression plasmid was introduced together with the NF-κB reporter gene into cells and the effect of cPrG-HCl on NF-κB activation was measured by luciferase assay (FIG. 4A and FIG. 4B).

female ICR mice = test: Toxicity on intraperitoneal administration to mice; type: in vivo; conditions: 5 weeks old, 25 to 29 g
[2] = as compared to FCCP
HeLa cells [3] = test: Cell viability by trypan blue dye exclusion assay; type: cell-based; conditions: stimulation by TNFα alone, FIG. 1A
Experimental: (§1) Cell culture: HeLa cells were cultured in Dulbecco's modified Eagle's medium supplemented with 10% fetal bovine serum and 50 μg/ml kanamycin at 37° C. in 5% CO2 in air.
(§2) Assay for apoptotic processes: Cell viability was determined by dye exclusion assay using 0.1% trypan blue. DNA fragmentation was analyzed as described previously (Kawauchi, K. et al. (1997) Biochem. Biophys. Res. Commun. 237, 543-547). In the caspase-3 assay, cells were disrupted by freeze-thaw in an extraction buffer (50 mM Tris-HCl, pH7.4, 1 mM EGTA, 5 mM EDTA, 5 mM MgCl2, 1 mM APMSF, 10 μg/ml pepstatin, 10 μg/ml leupeptin, and 1 mM DTT). Then the suspension was centrifuged at 15,000 rpm for 20 min, and the supernatants obtained were incubated at 37° C. for 60 min in a reaction buffer (50 mM Tris-HCl, pH7.4, 1 mM EDTA, 10 mM EGTA) with 20 μM of the fluorogenic substrate DEVD-AFC (Peptide Institute, Inc., Japan). Cleavage of the substrates was quantified by measuring the fluorescence of 7-amino-4-trifluomethyl coumarin released using a spectrofluorometer (Shimadzu RF5000) with excitation at 380 mn and emission at 460 nm.

HeLa cells [4] = test: DNA fragmentation (apoptosis) in HeLa cells; type: cell-based; conditions: stimulation by TNFα alone, FIG. 1A
Experimental: as §1, §2
HeLa cells were treated with TNFα and cPrG.HCl and the effect of cPrG.HCl on apoptosis was examined by measuring DNA fragmentation and survivability.

## CC(=O)N[C@@H](CS)C(=O)O [N-acetylcysteine]
[1]
  effect on apoptosis: inhibits

## CO/C1=C\C(C)=C\[C@@H](C)[C@@H](O)[C@@H](C)C/C(C)=C/C=C/[C@H](OC)[C@@H]([C@@H](C)[C@@H](O)[C@H](C)[C@@]2(O)C[C@@H](O)[C@H](C)[C@@H](C(C)C)O2)OC1=O [bafilomycin, reference compound]
NF-κB
  TNFα-induced NF-κB activation (gene expression induction, luciferase): not suppressed

## COC1=CC(c2ccc[nH]2)=N/C1=C\c1[nH]c(C)c2c1C(C)CCC2 (stereo not drawn) [cPrG, Cycloprodigiosin]
Female ICR mice
  LD50: greater than 10 mg
[2]
  ionophore activity: no ionophore activity

## TNFα
HeLa cells [3]
  decrease in cell viability: hardly observed
HeLa cells [4]
  DNA fragmentation: hardly observed
